Assays:
mouse vas deferens = mouse vas deferens adrenergic transmission test (MVD); settings: for IC50: concentration producing 50% of the maximum response
From the text: (§1) The test procedures used to determine the analgesic activities of the compounds have been described in detail in the prior art and are as follows: The acetylcholine-induced abdominal constriction test, which is a primary analgesic screening test designed to measure the ability of a test agent to suppress acetylcholine-induced abdominal constriction in mice, described by Collier et al., Brit. J. Pharmacol. Chemotherap. 32, 295 (1968); a modification of the anti-bradykinin test, which is also a primary analgesic screening procedure, described by Berkowitz et al., J. Pharmacol. Exptl Therap. 177, 500-508 (1971), Blane et al., J. Pharm. Pharmacol 19, 367-373 (1967), Botha et al., Eur. J. Pharmacol. 6, 312-321 (1969) and Deffenu et al., J. Pharm. Pharmacol. 18, 135 (1966); the rat paw flexion test, described by Kuzuna et al., Chem. Pharm. Bull., 23, 1184-1191 (1975), Winter et al., J. Pharm. Exptl. Therap., 211, 678-685 (1979) and Capetola et al., J. Pharm. Exptl. Therap. 214, 16-23 (1980); and the mouse vas deferens adrenergic transmission test, described by Henderson et al., Brit. J. Pharmacol., 46, 764-766 (1972).
As before, the compounds are identified by the example number above where their preparations are described.

[1] = tested on: acetic acid-induced writhing; assay: inhibition of acetic acid-induced writhing in the rat (RW); format: in vivo, rat (male Sprague Dawley); settings: oral; for ED50: Rattus norvegicus
Procedure: (§2) In order to further detail the analgesic profiles of the compounds of the invention, their activities in the inhibition of acetic acid-induced writhing assay in the rat, the inhibition of cyclooxygenase assay and a modification of the Randall-Selitto analgesic test were also determined The test procedure used to determine the inhibition of acetic acid-inducedwrithing in the rat is described as follows.
Male Sprague Dawley rats (Taconic Farms) weighing between 160 and 200g were treated in a random and blind fashion with 1% gum tragacanth vehicle or test agent suspended or dissolved in 1% gum tragacanth. Rats were individually housed in plastic cages (28×18×12 cm) throughout the experiment. Forty-five minutes after drug treatment, 0.5 ml of 9% (w/v) acetic acid was administered intraperitoneally, and animals were returned to their cages for 10 minutes. Writhing is not normally seen during this 10 minute period. Each animal was then observed for a writhing response during a subsequent 10 minute interval (55-65 minutes post-drug treatment). A writhing response was defined as arching of the back with extension of the hindlimbs and contraction of abdominal muscles. […] Data were expressed as percent inhibition of the mean number of writhes in the vehicle treated control group. Data were evaluated for statistical significance by Dunnett's test, and ED50 's for inhibition of acetic acid-induced writhing were determined by the graded dose-response analysis of Tallarida and Murray, Manual of Pharmacologic Calculations with Computer Programs, Springer Verlag, New York (1981).
(§3) In the acetylcholine-induced abdominal constriction test, the test compounds were administered either as suspensions in gum tragacanth (GT) or as aqueous solutions prepared by addition of just sufficient dilute aqueous methanesulfonic acid (MS) or dilute aqueous lactic acid (LA) to dissolve the compound The compounds are identified by the example number above where their preparations are described All data in the anti-bradykinin, rat writhing and Randall-Selitto tests were obtained on oral administration.

cyclooxygenase = assay: inhibition of cyclooxygenase assay (CO); format: biochemical, mice
Procedure: as §2
The test procedure used to determine cyclooxygenase inhibitory activity is described as follows.
Male mice were decapitated and stomach and brain (cerebral cortex, hypothalamus and medulla) were rapidly dissected over ice. The brains were homogenized in 3 volumes of ice cold 0.1 M potassium phosphate buffer, pH 7.4 containing 10 mM EDTA and 1% BSA (w/v). The homogenate was centrifuged at 10,000 xg for 15 minutes. The resulting supernatant was decanted and centrifuged at 100,000 xg for 60 minutes yielding a crude microsomal pellet. The pellet was washed superficially three times in 3 volumes of 0.1 M potassium phosphate buffer before final resuspension in 1.5 volumes of 0.1 M potassium phosphate buffer containing 1 mM norepinephrine and 1 mM reduced glutathione. The microsomes (50 μl) were preincubated with 50 μl of indomethacin (0.3 μM), test compound or norepinephrine/glutathione-containing buffer for 5 minutes at room temperature. The enzyme reaction was initiated by the addition of 50 μl of ^14 C arachidonic acid to yield a final concentration of 10 μM. After a further incubation of 15 minutes at 37° C., the reaction was stopped by the addition of 50 μl of 4M formic acid. Blank values were determined by using microsomes boiled for 5 minutes but otherwise were treated similarly. The ^14 C-labelled material was extracted 3 times with 0.5 ml of ethyl acetate with intermediate centrifugations at 500 xg for 5 minutes to clarify the aqueous and organic phases. This procedure extracted >95% of the ^14 C-labelled materials. The ethyl acetate washes were added to tubes containing 5 μg each of PGE2, PGF2, PGD2, and 10 μg PGI2 in 25 μl of ethanol. The mixture was evaporated to dryness under nitrogen and the residue dissolved in 150 μl of chloroform:methanol (2:1). This solution was spotted on 5×20 cm silica gel plates and chromatographed with an ethyl acetate, trimethylpentane, acetic acid and water mixture (110:50:20:100 by volume) prepared by shaking the solvents and separating and discarding the organic phase. The prostaglandins were visualized in iodine vapor, the various spots were scraped, and the ^14 C-labelled prostaglandins quantitated by liquid scintillation spectroscopy in 10 ml of BIOFLUOR® or FLUORODYNE®.
as §3

[2] = tested on: acetylcholine-induced abdominal constriction; assay: acetylcholine-induced abdominal constriction test (ACH); format: in vivo, mice; settings: for ED50: Mus musculus
From the text: as §1, §3

bradykinin = assay: anti-bradykinin test (BDK/BRKD); format: in vivo; settings: oral
From the text: as §1, with “(1972). […]” for “(1972).”

[3] = tested on: brewers' yeast-induced hyperalgesia; assay: modification of the Randall-Selitto analgesic (paw pressure) test (R-S); format: in vivo, rat (Sprague-Dawley); settings: Rattus norvegicus; oral; read-out: R-S minimum effective dose, MED
Procedure: as §2
The modification of the Randall-Selitto analgesic test procedure used is described as follows:
Female Sprague-Dawley rats, weighing 60 to 95 grams, were routinely used. […] The rats were housed 10 per cage with food and water available ad libitum.
The Randall-Selitto Test device used was a UGO Basile Analgesy Meter (catalog no. 7200), with the flat-topped plinth on the bottom, acting as a platform upon which the hind paw of the rat was placed and the round-pointed pusher oriented downward. […]
Animals were given the test drug, p.o., two hours after the sub-plantar injection, four doses customarily being given, along with vehicle control and a positive control (Zomepirac). […] Treatments were assigned in such a way that both the range and the means of the baseline readings were as nearly equal as possible for all treatments. […]
Results were analyzed with the Student's t-test. […]

[4] = po, aqueous methanesulfonic acid (MS)
[5] = p.o., dose level 100, aqueous methanesulfonic acid (MS)
[6] = 30 μM, negative values = increases over controls, not demonstrated to differ significantly
[7] = p.o., dose level 100, suspension in gum tragacanth (GT)

| Compound | IC50 (mouse vas deferens) [nM] | ED50 [1] [mg/kg] | CO percent inhibition (% I) (cyclooxygenase; 100 μM) [%] | ED50 ([2]; iv) [mg/kg] | ED50 [2, 4] [mg/kg] | RW percent inhibition ([1]; dose level 100) [%] | ACH percent inhibition [2, 5] [%] | CO percent inhibition (% I) (cyclooxygenase; [6]) [%] | ACH percent inhibition [2, 7] [%] | other results |
| --- | --- | --- | --- | --- | --- | --- | --- | --- | --- | --- |
| Cc1c(C(=O)c2cccc3ccccc23)c2cccc3c2n1C(CN1CCOCC1)CO3 (single isomer, unassigned; (+)) [2B(d), (+)-3-(4-morpholinylmethyl)-5-methyl-6-(1-naphthylcarbonyl)-2,3-dihydropyrrolo1,2,3-de]-1,4-benzoxazine methanesulfonate] | 0.43 ± 0.1 | 7.5 | 9 | 0.027 | 33 |  |  |  |  |  |
| CS(=O)(=O)O.Cc1c(C(=O)c2cccc3ccccc23)c2cccc3c2n1C(CN1CCOCC1)CO3 (single isomer, unassigned; (-)) [2B(1), (-)-3-(4-morpholinylmethyl)-5-methyl-6-(1-naphthylcarbonyl)-2,3-dihydropyrrolo[1,2,3-de]-1,4-benzoxazine methanesulfonate] |  |  | 10.4 |  |  | 12 | 10 |  |  | MVD percent inhibition (mouse vas deferens; 10 μM): 37%; IC50 (mouse vas deferens; methanesulfonate): > 10000 nM; ACH percent inhibition ([2]; i.v., dose level 0.3): 20%; ACH percent inhibition ([2]; i.v., dose level 1): 40%; ACH percent inhibition ([2]; i.v., dose level 3): 10%; ACH percent inhibition ([2]; i.v., dose level 5.5): 30%; ACH percent inhibition ([2]; p.o., dose level 10, aqueous methanesulfonic acid (MS)): 10%; ACH percent inhibition ([2]; p.o., dose level 30, aqueous methanesulfonic acid (MS)): 10%; ACH percent inhibition ([2]; p.o., dose level 173, aqueous methanesulfonic acid (MS)): 30% |
| COc1ccc(C(=O)c2c(C)n3c4c(cccc24)OCC3CN2CCOCC2)cc1 (stereo not shown) [Example 1A, 3-(4-morpholinylmethyl)-5-methyl-6-(4-methoxybenzoyl)-2,3-dihydropyrrolo[1,2,3-de]-1,4-benzoxazine] | 123 ± 13 |  |  | 3.4 |  | 50.6 | 30 | 19 | 20 | RW percent inhibition ([1]; dose level 300): 23%; BRKD percent inhibition (bradykinin; dose level 300): 0% |
| Cc1c(C(=O)c2cccc3ccccc23)c2cccc3c2n1C(CN1CCOCC1)CO3 (stereo not shown) [Example 1B, 3-(4-morpholinylmethyl)-5-methyl-6-(1-naphthylcarbonyl)-2,3-dihydropyrrolo1,2,3-de]-1,4-benzoxazine methanesulfonate] |  | 8.6 |  | 0.25 | 33 |  |  | -35 | 30 | minimal effective dose [3]: 0.003 mg/kg; ED50 (bradykinin): 35 mg/kg; ACH percent inhibition ([2]; s.c., dose level 100): 73% |
| Cc1c(C(=O)c2ccc3ncccc3c2)c2cccc3c2n1C(CN1CCOCC1)CO3 (stereo not shown) [Example 1C] | 21 ± 0.65 | 3.5 |  | 1.8 |  |  |  | -26.2 |  | ED50 ([2]; po, vehicle not given): 27 mg/kg; ACH percent inhibition ([2]; s.c., dose level 100, suspension in gum tragacanth (GT)): 0% |
| COc1ccc(C(=O)c2cn3c4c(cccc24)OCC3CN2CCOCC2)cc1 (stereo not shown) [Example 2C, 3-(4-morpholinylmethyl)-6-(4-methoxybenzoyl)-2,3-dihydropyrrolo[1,2,3-de]-1,4-benzoxazine] | 44 ± 9.8 |  |  | 3.9 |  |  |  | -8.9 | 30 |  |

— US4939138A, “2- and 3-aminomethyl-6-arylcarbonyl-2,3-dihydropyrrolo(1,2,3-DE)-1,4-benzoxazin es” (Sterling Drug Inc., priority 1989, dated 1990)
